Where two headings read alike, the source gives them in different places. Values belong to the compound of their own block, whether it stands above or below them.
Tests used:
[1] = target: T1, BSA (Bos taurus, UniProt P02769); test: Far-UV CD secondary structure of BSA (CONTIN-LL deconvolution); type: physicochemical, bovine; design: Regular Alpha Helix / Distorted Alpha Helix / Regular Beta Sheet / Distorted Beta Sheet / Turns / Unordered: unit not given here; details: for Distorted Alpha Helix / Distorted Beta Sheet / Regular Alpha Helix / Regular Beta Sheet / Turns / Unordered: 25 °C
T1 construct: purchased Millipore Sigma-Aldrich
T1 sequence (P02769 25-607): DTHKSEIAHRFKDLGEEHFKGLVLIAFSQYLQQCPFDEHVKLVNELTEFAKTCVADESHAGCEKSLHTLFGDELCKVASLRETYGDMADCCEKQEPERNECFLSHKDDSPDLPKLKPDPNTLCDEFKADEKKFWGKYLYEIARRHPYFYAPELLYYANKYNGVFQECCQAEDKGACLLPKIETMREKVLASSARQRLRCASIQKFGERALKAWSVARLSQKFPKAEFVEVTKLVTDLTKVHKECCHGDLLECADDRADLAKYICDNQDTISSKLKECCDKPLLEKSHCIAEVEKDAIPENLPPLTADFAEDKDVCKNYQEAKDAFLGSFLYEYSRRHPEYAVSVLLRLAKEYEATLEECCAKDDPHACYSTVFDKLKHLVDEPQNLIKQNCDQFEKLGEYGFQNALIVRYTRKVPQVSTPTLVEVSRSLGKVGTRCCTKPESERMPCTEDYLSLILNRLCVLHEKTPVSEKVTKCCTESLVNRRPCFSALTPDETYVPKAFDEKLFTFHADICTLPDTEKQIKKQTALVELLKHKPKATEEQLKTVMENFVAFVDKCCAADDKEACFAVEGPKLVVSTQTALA
Description: Circular dichroism (CD) is widely used to study the secondary structures of proteins, peptides and nucleic acids, because it requires a low concentration sample, is a nondestructive method, allows studying a wide range of variables (temperature, pH, etc.), and provides information on the effect of added ligands on protein folding and interactions. Far-UV (190–260 nm) CD spectroscopy was used to assess the IFN- α 2b and BSA secondary structure since the spectra are characteristic of different structural elements.
Circular dichroism (CD) spectra were collected in a 10 mm quartz cuvette and a Chirascan spectropolarimeter (Applied Photophysics, UK) at room temperature. All CD spectra were recorded in the far-UV range of 190 to 260 nm at scan rates of 50 nm/min, with 4 accumulations, and a response time of 3 s; CD spectra were collected. For each CD experiment, two distinct duplicates were acquired and combined. BSA was fixed at 1 mg/mL, solvent concentrations ranging from 0.1 to 200 mM were used, and the spectra were translated to MRE after being expressed in terms of molar ellipticity. Spectral deconvolution was carried out with DichroWeb using the CONTIN-LL deconvolution algorithm with the SMP180 reference set.

[2] = target: T1, BSA; test: DSC thermal unfolding of BSA in water and aqueous solutions of ABS phase-forming components; type: physicochemical, bovine
Procedure: Differential scanning calorimetry (DSC) measurements were performed with Nano DSC equipment, as detailed in Section 3, and used to determine the melting temperature (T m ) and enthalpy ( Δ H) of protein unfolding. DSC analyzes changes in the structure and stability of proteins as thermal transitions at the nanoscale. Using DSC to measure heat capacity as a function of the temperature of a well-studied protein such as BSA provides keen insights into folding and unfolding processes, as well as factors affecting stability. Due to the volume and concentration requirements of the DSC technique, and the constraints in available quantities of IFN- α 2b the DSC experiments on the ABS phase-forming components’ effect on the structural properties of proteins were attained only for BSA.
The T m of BSA, which corresponds to the thermal unfolding transition midpoint, was measured in the absence and presence of the ABS phase-forming components at increasing concentrations (see Figure 1 and Table 2).

[3] = target: T2, FITC-BSA (Bos taurus, UniProt P02769); test: MST binding to FITC-BSA; design: species or system bovine; details: 0.41 μM BSA
T2 construct: purchased Millipore Sigma-Aldrich
T2 sequence (P02769 25-607): as above
Procedure: Herein, a commercial FITC labeling kit (Section 3) was used to fluorescently tag both IFN- α 2b and BSA. Typically, in the labeling process, one amine per protein is labeled, statistically distributing the position of the dye. […] The MST assay was performed as detailed in Section 3. The solutions were prepared with a concentration of IFN- α 2b and BSA fixed at 0.41 μ M in water. For IFN- α 2b a concentration of 2.7 μ M was also prepared to compare it with previous results on MST-binding between FILs and IFN- α 2b fluorescently labeled with a different tag. In each run of MST, a maximum concentration of a ligand is selected and consecutively diluted in sixteen capillaries. […] The experimental conditions of the MST assay only allow the study of the aggregation phenomenon individually for the first CAC.
Microscale thermophoresis (MST) measurements of the dye-labeled protein were used to conduct binding investigations. […] MST tests were conducted in a monolith NT.115 (blue/red) in accordance with the NanoTemper Technologies methodology. Medium MST power and 20% LED power (nano-blue) were set as the instrument’s default settings. For every MST measurement, a PBS buffer was used. The concentration of FITC-BSA was fixed at 0.4 μ M and FITC-IFN- α 2b was tested under two different concentrations (of 0.4 and 2.7 μ M). The ligand was used to create a set of 16 1:1 dilutions, with the starting ligand concentrations ranging from 10 to 400 mM. The typical parameters for MST traces were used for recording: […], 30 s MST power on, and 5 s MST power off. The data from three independently conducted pipetted experiments were examined using NanoTemper Technologies’ MO.Affinity Analysis software, version 2.3.

[4] = target: T1, BSA; test: CD thermal unfolding (Tm) of BSA; type: physicochemical, bovine
Description: The thermal stability assessed by far-UV CD is solely determined through the thermal decay of the alpha-helical structure.

[5] = 1.0 mg/mL BSA, 0.1 mM component
[6] = 1.0 mg/mL BSA, 120 mM component
[7] = 1.0 mg/mL BSA, 200 mM component
[8] = 1.0 mg/ml BSA, 200 mM component aqueous solution
[9] = 1.2-1.6 mg/mL BSA in [N1112(OH)][H2PO4]-rich phase of BP#8

- Distorted Alpha Helix [1, 5]: 0.205
- Distorted Beta Sheet [1, 5]: 0.026
- Regular Alpha Helix [1, 5]: 0.391
- Regular Beta Sheet [1, 5]: 0.000
- Turns [1, 5]: 0.136
- Unordered [1, 5]: 0.242
- Distorted Alpha Helix ([1]; 1.0 mg/mL BSA, 1 mM component): 0.216
- Distorted Beta Sheet ([1]; 1.0 mg/mL BSA, 1 mM component): 0.023
- Regular Alpha Helix ([1]; 1.0 mg/mL BSA, 1 mM component): 0.428
- Regular Beta Sheet ([1]; 1.0 mg/mL BSA, 1 mM component): 0.000
- Turns ([1]; 1.0 mg/mL BSA, 1 mM component): 0.135
- Unordered ([1]; 1.0 mg/mL BSA, 1 mM component): 0.198
- Distorted Alpha Helix ([1]; 1.0 mg/mL BSA, 5 mM component): 0.225
- Distorted Beta Sheet ([1]; 1.0 mg/mL BSA, 5 mM component): 0.022
- Regular Alpha Helix ([1]; 1.0 mg/mL BSA, 5 mM component): 0.427
- Regular Beta Sheet ([1]; 1.0 mg/mL BSA, 5 mM component): 0.000
- Turns ([1]; 1.0 mg/mL BSA, 5 mM component): 0.136
- Unordered ([1]; 1.0 mg/mL BSA, 5 mM component): 0.19
- Distorted Alpha Helix ([1]; 1.0 mg/mL BSA, 25 mM component): 0.196
- Distorted Beta Sheet ([1]; 1.0 mg/mL BSA, 25 mM component): 0.024
- Regular Alpha Helix ([1]; 1.0 mg/mL BSA, 25 mM component): 0.333
- Regular Beta Sheet ([1]; 1.0 mg/mL BSA, 25 mM component): 0.004
- Turns ([1]; 1.0 mg/mL BSA, 25 mM component): 0.131
- Unordered ([1]; 1.0 mg/mL BSA, 25 mM component): 0.312
- Distorted Alpha Helix ([1]; 1.0 mg/mL BSA, 55 mM component): 0.211
- Distorted Beta Sheet ([1]; 1.0 mg/mL BSA, 55 mM component): 0.026
- Regular Alpha Helix ([1]; 1.0 mg/mL BSA, 55 mM component): 0.412
- Regular Beta Sheet ([1]; 1.0 mg/mL BSA, 55 mM component): 0.000
- Turns ([1]; 1.0 mg/mL BSA, 55 mM component): 0.138
- Unordered ([1]; 1.0 mg/mL BSA, 55 mM component): 0.214
- Distorted Alpha Helix ([1]; 1.0 mg/mL BSA, 90 mM component): 0.211
- Distorted Beta Sheet ([1]; 1.0 mg/mL BSA, 90 mM component): 0.025
- Regular Alpha Helix ([1]; 1.0 mg/mL BSA, 90 mM component): 0.4
- Regular Beta Sheet ([1]; 1.0 mg/mL BSA, 90 mM component): 0.000
- Turns ([1]; 1.0 mg/mL BSA, 90 mM component): 0.137
- Unordered ([1]; 1.0 mg/mL BSA, 90 mM component): 0.227
- Distorted Alpha Helix [1, 6]: 0.212
- Distorted Beta Sheet [1, 6]: 0.025
- Regular Alpha Helix [1, 6]: 0.415
- Regular Beta Sheet [1, 6]: 0.000
- Turns [1, 6]: 0.135
- Unordered [1, 6]: 0.213
- Distorted Alpha Helix [1, 7]: 0.216
- Distorted Beta Sheet [1, 7]: 0.024
- Regular Alpha Helix [1, 7]: 0.436
- Regular Beta Sheet [1, 7]: 0.000
- Turns [1, 7]: 0.136
- Unordered [1, 7]: 0.189
- Tm [2, 5]: 79.97 °C
- ΔG [2, 5]: 19.6 kcal/mol
- ΔHcal [2, 5]: 125 kcal/mol
- ΔHcal/ΔHvH [2, 5]: 0.968
- ΔHvH [2, 5]: 129.2 kcal/mol
- ΔS [2, 5]: 1.480 KJ/(mol.K)
- Tm ([2]; 1.0 mg/mL BSA, 1 mM component): 81.63 °C
- ΔG ([2]; 1.0 mg/mL BSA, 1 mM component): 26.77 kcal/mol
- ΔHcal ([2]; 1.0 mg/mL BSA, 1 mM component): 167.4 kcal/mol
- ΔHcal/ΔHvH ([2]; 1.0 mg/mL BSA, 1 mM component): 0.980
- ΔHvH ([2]; 1.0 mg/mL BSA, 1 mM component): 170.8 kcal/mol
- ΔS ([2]; 1.0 mg/mL BSA, 1 mM component): 1.974 KJ/(mol.K)
- Tm ([2]; 1.0 mg/mL BSA, 5 mM component): 80.68 °C
- ΔG ([2]; 1.0 mg/mL BSA, 5 mM component): 20.87 kcal/mol
- ΔHcal ([2]; 1.0 mg/mL BSA, 5 mM component): 131.5 kcal/mol
- ΔHcal/ΔHvH ([2]; 1.0 mg/mL BSA, 5 mM component): 1.018
- ΔHvH ([2]; 1.0 mg/mL BSA, 5 mM component): 129.1 kcal/mol
- ΔS ([2]; 1.0 mg/mL BSA, 5 mM component): 1.552 KJ/(mol.K)
- Tm ([2]; 1.0 mg/mL BSA, 10 mM component): 80.77 °C
- ΔG ([2]; 1.0 mg/mL BSA, 10 mM component): 25.17 kcal/mol
- ΔHcal ([2]; 1.0 mg/mL BSA, 10 mM component): 159 kcal/mol
- ΔHcal/ΔHvH ([2]; 1.0 mg/mL BSA, 10 mM component): 1.046
- ΔHvH ([2]; 1.0 mg/mL BSA, 10 mM component): 151.9 kcal/mol
- ΔS ([2]; 1.0 mg/mL BSA, 10 mM component): 1.878 KJ/(mol.K)
- effect on BSA Tm (DSC) ([2]; tested concentration range vs water): maintained
- Kd ([3]; max. conc. first capillary 12.5 mM (monomer)): no binding detected
- Kd ([3]; max. conc. first capillary 400 mM (monomer)): no binding detected
- Tm, Ellipticity 192 nm [4, 8]: 70.098 °C
- Tm, Ellipticity 208 nm [4, 8]: 73.063 °C
- Tm, Ellipticity 222 nm [4, 8]: 71.977 °C
Compound: OC[C@H]1O[C@@](CO)(O[C@H]2O[C@H](CO)[C@@H](O)[C@H](O)[C@H]2O)[C@@H](O)[C@@H]1O [Sucrose, sucrose]

Compound: O=S(=O)(O)C(F)(F)C(F)(F)C(F)(F)C(F)(F)F [[N1112(OH)][C4F9SO3], (2-hydroxyethyl)trimethylammonium perfluorobutane sulfonate]
- Kd ([3]; max. conc. first capillary in 1st CAC range, read-out: Kd): 860 ± 190 µM
- Kd ([3]; max. conc. first capillary in 2nd CAC range, read-out: Kd): 1490 ± 300 µM

Compound: Bovine serum albumin [BSA]
- Distorted Alpha Helix ([1]; 1.0 mg/mL BSA in water): 0.206
- Distorted Beta Sheet ([1]; 1.0 mg/mL BSA in water): 0.025
- Regular Alpha Helix ([1]; 1.0 mg/mL BSA in water): 0.400
- Regular Beta Sheet ([1]; 1.0 mg/mL BSA in water): 0.000
- Turns ([1]; 1.0 mg/mL BSA in water): 0.136
- Unordered ([1]; 1.0 mg/mL BSA in water): 0.233
- predicted α-helical content ([1]; BSA in water, CD deconvolution): 0.61
- ΔG ([2]; 1.0 mg/mL BSA in water): 16.87 kcal/mol
- ΔHcal ([2]; 1.0 mg/mL BSA in water): 113.9 kcal/mol
- ΔHvH ([2]; 1.0 mg/mL BSA in water): 112.4 kcal/mol
- ΔS ([2]; 1.0 mg/mL BSA in water): 1.361 KJ/(mol.K)
- Tm, Ellipticity 192 nm ([4]; 1.0 mg/mL BSA in water): 74.028 °C
- Tm, Ellipticity 208 nm ([4]; 1.0 mg/mL BSA in water): 74.616 °C
- Tm, Ellipticity 222 nm ([4]; 1.0 mg/mL BSA in water): 76.277 °C
- Tm, Ellipticity 208 nm [4, 9]: 76.122 °C
- Tm, Ellipticity 222 nm [4, 9]: 80.396 °C
